Data on three compounds can be found in patent US12233060B2, “Inhibitors of Ataxia-Telangiectasia Mutated and Rad3-related protein kinase (ATR) for use in methods of treating cancer” (THE INSTITUTE OF CANCER RESEARCH: ROYAL CANCER HOSPITAL, priority 2016, dated 2025).

The subject of experiment [1] is HCT116 ARID1A isogenic (+/+ and −/−) cell lines. Briefly: Clonogenic survival of ARID1A isogenic cells. It counts as cell-based, human. How it is done: (§1) FIG. 2. In vitro ARID1A/ATR synthetic lethality. A. Chemical structure of VX-970. B. Western blot of ARID1A in human ARID1A isogenic HCT116 cells. C. Image of colonies in 6 well-plate clonogenic assay. HCT116 ARID1A isogenic (^+/+ and ^−/−) cell lines were exposed to increasing concentrations of the VE-821 (0, 0.1, 1 uM) and VX-970 (0, 0.01, 0.05 uM) for 14 days. D and E. Dose response clonogenic survival curve of HCT116 ARID1A isogenic (^+/+ and ^−/−) cell lines exposed to increasing concentrations of the VE-821 and VX-970 for 14 days. Error bars represent SD from triplicate experiments, ANOVA p-value of <0.0001. F. Area under curve (AUC) box whisker comparison plot for human tumor cell lines exposed to VX-970 for five days. ARID1A wild type tumor cell lines (n=15) were compared to ARID1A mutant cell lines (n=9). Student's t-test p=0.00594. G. Dose response clonogenic survival curve of mouse Arid1a isogenic ES cell lines. Experiment was performed as per (C). Error bars represent SD from triplicate experiments, ANOVA p value of <0.0001. H. Western blot of Arid1a protein expression in mouse ES Arid1a isogenic cells. I. Z score box whisker comparison plot for 86 human tumor cell lines transfected with ATR siRNA. Cells lines were transfected with siRNA and cell viability was estimated five days later by Cell Titre Glo reagent.
Short-term survival assays were performed in 384-well plates. Exponentially growing cells were plated at a concentration of 500 cells/well. Drug was added 24 h after seeding and cells were continuously exposed to the drug for five days, after which cell viability was estimated using CellTitre-Glo luminescence (Promega). For clonogenic assays, cells were seeded in 6-well plates (500 cells/well) and continuously exposed to drug 24!h after seeding for 14 days. Media containing fresh drug was replaced every 72 hours. Cells were fixed with 10% trichloroacetic acid and stained with sulphorhodamine B (Sigma-Aldrich, Gillingham, UK). Colonies were counted manually. All cell-based assays were performed at least in triplicate.

The subject of experiment [2] is TOV21G (ARID1A mutant) and RMG1 (ARID1A wildtype) cells. Kind of experiment: Five-day dose response in OCCC cell lines TOV21G and RMG1. To be noted: 5 days exposure. It counts as cell-based, human. How it is done:
FIG. 3. In vivo ARID1A/ATR synthetic lethality. A. Schematic of VX-970 therapy experiment in mice bearing established HCT116 ARID1A^+/+ and ARID1A^−/− xenografts. Cells were inoculated subcutaneously into nude mice and tumors allowed to establish for 10 days. Mice were then randomized to treatment regimens of either VX-970 (60 mg/kg, 4× weekly by oral gavage) or vehicle. Mice were then treated for a subsequent 40 days. Tumor volume was monitored twice weekly. B. Relative tumor volume plot from (A) showing efficacy of VX-970 and selectivity for ARID1A^−/− xenografts* p=0.024, ANOVA. C. Schematic of tumor incidence experiment in mice with non-established HCT116 ARID1A^+/+ and ARID1A^−/− xenografts. Mice were inoculated with cells as before, randomized and then treated with VX-970. […] Tumor volume was monitored twice weekly and overall tumour incidence was assessed 40 days later. […] PARP-1, cleaved PARP-1 (85 kDa fragment) and tubulin were detected by western blot. […] Caspase3/7 activity was assessed using Caspase-Glo and total cellular viability was estimated using CellTitre-Glo. Luminescence ratios for Caspase-Glo (i.e. apoptotic cells) and CellTitre-Glo (ie viable cells) was determined for each dose and normalized to DMSO treated samples. *Student's t-test, p<0.05. […]
Short-term survival assays were performed in 384-well plates. […] Colonies were counted manually. […]

Another experiment deals with HCC1143 cells. Briefly: 384 well plate cell survival after ARID1A siRNA transfection. It counts as cell-based, human. To be noted: ARID1A siRNA vs control, five continuous days exposure. The text has this: FIG. 1. […] A. Structure of VE-821 and schematic describing workflow for parallel VE-821 chemosensitisation screens in MCF12A and HCC1143 cells. B. Scatter plots of VE-821 Drug Effect (DE) Z-scores from all 1280 siRNAs used in the in the chemosensitisation screens. The DE Z-score threshold of −2 (red line) was used for defining candidate synthetic lethal interactions is shown. C. Venn diagram of DE<−2 VE-821 sensitisation hits in MCF12A and HCC1143 cells. Numbers shown indicate number of sensitisation genes. Amongst the 30 genes with DE Z-scores <−2 in both cell lines, seven well-established tumour suppressor genes were identified. D. Bar charts illustrating DE Z-scores for control, non-targeting, siRNAs (siALLSTAR, siCON1, siCON2) and ARID1A siRNAs in the chemosensitisation screens. Values shown are median from triplicate screens and error bars represent SD. […]
A siRNA library was purchased from Dharmacon. […] RNAi screening conditions were optimised and raw CellTitre-Glo (Promega) luminescent viability readings were generated as previously described21. […]
(§2) Short-term survival assays were performed in 384-well plates. […] Drug was added 24 h after seeding and cells were continuously exposed to the drug for five days, after which cell viability was estimated using CellTitre-Glo luminescence (Promega). […] Colonies were counted manually. […]

The target of a further experiment is ATR (Homo sapiens, UniProt Q13535). To be noted: ATR catalytic inhibitor; reference 15; cited from earlier work.
For experiment [3], the system named is Arid1a+/+ and Arid1a−/− mouse embryonic stem (ES) cells. Kind of experiment: Clonogenic survival of mouse Arid1a isogenic ES cells. Format: cell-based. To be noted: p<0.001 ANOVA. How it is done:
as §1, with “I. Z score box whisker comparison plot for 86 human tumor cell lines transfected with ATR siRNA. Cells lines were transfected with siRNA and cell viability was estimated five days later by Cell Titre Glo reagent.” left out
as §2

ATR, sequence (Q13535 whole entry): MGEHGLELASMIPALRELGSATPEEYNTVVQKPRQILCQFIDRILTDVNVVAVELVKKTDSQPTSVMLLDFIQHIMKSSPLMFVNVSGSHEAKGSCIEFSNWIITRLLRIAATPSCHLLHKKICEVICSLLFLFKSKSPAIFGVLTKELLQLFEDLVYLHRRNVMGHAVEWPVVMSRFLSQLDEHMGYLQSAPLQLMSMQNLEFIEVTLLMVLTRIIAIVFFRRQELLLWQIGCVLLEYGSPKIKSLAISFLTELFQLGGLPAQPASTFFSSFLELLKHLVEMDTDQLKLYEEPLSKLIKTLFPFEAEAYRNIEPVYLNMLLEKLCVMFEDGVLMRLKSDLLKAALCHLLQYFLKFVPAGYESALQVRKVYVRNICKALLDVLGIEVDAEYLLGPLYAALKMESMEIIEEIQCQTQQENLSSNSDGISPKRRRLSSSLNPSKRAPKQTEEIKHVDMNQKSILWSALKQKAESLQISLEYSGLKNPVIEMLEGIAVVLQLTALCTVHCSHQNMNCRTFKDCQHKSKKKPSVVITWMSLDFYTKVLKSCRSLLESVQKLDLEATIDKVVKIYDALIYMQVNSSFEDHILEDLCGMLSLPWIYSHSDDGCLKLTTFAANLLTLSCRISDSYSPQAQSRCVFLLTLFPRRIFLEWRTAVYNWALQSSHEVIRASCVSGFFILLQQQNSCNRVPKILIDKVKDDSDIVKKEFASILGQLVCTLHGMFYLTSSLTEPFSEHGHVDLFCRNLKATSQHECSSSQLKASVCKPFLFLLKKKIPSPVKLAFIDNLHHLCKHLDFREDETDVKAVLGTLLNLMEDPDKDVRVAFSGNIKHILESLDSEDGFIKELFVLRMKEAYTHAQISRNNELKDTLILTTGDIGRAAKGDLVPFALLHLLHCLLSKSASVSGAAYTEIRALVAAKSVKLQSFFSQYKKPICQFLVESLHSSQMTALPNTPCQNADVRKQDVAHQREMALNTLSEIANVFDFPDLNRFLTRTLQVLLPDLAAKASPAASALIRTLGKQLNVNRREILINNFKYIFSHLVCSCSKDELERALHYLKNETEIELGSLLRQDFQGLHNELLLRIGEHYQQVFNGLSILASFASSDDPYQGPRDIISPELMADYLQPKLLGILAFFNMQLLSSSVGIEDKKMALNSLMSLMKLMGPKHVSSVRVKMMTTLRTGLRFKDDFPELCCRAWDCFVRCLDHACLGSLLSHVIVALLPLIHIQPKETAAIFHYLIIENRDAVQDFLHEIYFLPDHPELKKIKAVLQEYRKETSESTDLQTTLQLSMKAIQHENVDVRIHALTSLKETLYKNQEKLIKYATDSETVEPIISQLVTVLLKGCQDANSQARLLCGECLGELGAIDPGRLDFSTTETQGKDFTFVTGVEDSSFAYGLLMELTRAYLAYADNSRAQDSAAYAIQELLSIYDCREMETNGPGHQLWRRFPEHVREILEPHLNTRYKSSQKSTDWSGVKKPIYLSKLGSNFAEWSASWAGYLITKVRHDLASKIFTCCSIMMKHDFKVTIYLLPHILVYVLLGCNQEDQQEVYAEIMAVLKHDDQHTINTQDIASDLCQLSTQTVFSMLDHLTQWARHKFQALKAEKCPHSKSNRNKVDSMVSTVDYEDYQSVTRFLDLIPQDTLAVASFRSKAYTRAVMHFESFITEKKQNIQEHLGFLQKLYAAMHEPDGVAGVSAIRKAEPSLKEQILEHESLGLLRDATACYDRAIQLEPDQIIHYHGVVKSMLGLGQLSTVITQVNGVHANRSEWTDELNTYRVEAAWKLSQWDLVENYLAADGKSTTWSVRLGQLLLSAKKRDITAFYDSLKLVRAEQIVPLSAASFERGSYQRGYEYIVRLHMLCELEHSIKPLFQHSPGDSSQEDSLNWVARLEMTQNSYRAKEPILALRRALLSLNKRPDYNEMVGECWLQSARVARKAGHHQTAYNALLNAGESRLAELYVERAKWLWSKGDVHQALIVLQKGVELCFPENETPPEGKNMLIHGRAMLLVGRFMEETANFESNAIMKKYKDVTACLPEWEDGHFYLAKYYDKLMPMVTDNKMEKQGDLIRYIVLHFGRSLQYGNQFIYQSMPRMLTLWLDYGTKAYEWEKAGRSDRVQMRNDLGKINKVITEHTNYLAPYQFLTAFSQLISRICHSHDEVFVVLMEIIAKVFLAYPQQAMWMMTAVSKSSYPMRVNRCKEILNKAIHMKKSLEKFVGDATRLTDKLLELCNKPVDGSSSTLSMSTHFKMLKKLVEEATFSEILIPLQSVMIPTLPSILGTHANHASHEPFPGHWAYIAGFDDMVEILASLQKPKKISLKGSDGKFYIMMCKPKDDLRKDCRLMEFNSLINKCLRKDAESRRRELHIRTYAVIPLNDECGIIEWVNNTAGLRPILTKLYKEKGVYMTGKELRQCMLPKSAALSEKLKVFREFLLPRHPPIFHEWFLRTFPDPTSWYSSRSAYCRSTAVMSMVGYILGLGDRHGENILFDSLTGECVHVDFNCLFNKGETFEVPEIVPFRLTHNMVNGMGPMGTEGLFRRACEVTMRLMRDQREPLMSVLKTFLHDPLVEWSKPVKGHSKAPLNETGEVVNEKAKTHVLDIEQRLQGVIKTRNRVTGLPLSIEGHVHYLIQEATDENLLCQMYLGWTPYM
ATR, sequence (Q8WXE1 whole entry partner): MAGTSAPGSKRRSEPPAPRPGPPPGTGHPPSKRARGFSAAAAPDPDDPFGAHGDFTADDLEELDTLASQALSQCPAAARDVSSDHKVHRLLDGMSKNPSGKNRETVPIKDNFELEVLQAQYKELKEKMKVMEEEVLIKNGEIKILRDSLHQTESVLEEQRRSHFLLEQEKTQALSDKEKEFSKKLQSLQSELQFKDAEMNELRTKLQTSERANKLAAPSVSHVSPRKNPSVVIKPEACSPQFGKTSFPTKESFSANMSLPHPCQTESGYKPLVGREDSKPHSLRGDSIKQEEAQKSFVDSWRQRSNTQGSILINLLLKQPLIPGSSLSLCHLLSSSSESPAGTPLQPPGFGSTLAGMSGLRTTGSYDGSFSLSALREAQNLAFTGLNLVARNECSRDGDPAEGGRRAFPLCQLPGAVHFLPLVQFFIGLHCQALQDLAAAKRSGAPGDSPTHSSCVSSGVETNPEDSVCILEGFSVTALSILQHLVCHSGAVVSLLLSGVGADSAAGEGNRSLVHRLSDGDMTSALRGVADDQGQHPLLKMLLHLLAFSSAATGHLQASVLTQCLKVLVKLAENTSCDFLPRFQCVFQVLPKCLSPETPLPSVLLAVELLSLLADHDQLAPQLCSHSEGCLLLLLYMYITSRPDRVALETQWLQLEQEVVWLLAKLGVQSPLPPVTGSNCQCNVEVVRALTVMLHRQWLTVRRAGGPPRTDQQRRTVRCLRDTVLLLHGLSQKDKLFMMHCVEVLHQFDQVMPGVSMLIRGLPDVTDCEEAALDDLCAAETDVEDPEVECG

`CC(=O)O[C@H]1C(=O)[C@@]2(C)[C@H]([C@H](OC(=O)c3ccccc3)[C@]3(O)C[C@H](OC(=O)[C@H](O)[C@@H](NC(=O)c4ccccc4)c4ccccc4)C(C)=C1C3(C)C)[C@]1(OC(C)=O)CO[C@@H]1C[C@@H]2O` [taxol]: the “ARID1A−/− selectivity” value in experiment [1] is on record as “neither taxol or methotrexate elicited ARID1A^−/− selectivity”.

What is called Ki is a measure of affinity in units of concentration, obtained from inhibition or displacement. Regarding `CS(=O)(=O)c1ccc(-c2cnc(N)c(C(=O)Nc3ccccc3)n2)cc1` [VE-821, 3-amino-6-(4-methylsulfonylphenyl)-N-phenyl-pyrazine-2-carboxamide], in experiment [2], the “sensitivity of TOV21G vs RMG1” value is “more sensitive to both VE-821 and VX-970”. Moreover, the “ATRi sensitivity caused by ARID1A siRNA” value with HCC1143 cells is recorded as “significantly enhanced sensitivity to VE-821”. The Ki on ATR was 13 nM. Further, the “selective targeting of Arid1a−/− ES cells in clonogenic assays” value in experiment [3] was “selectively targeted Arid1a^−/− ES cells”.

For `CN(Cc1cnc2nc(N)nc(N)c2n1)c1ccc(C(=O)N[C@@H](CCC(=O)O)C(=O)O)cc1` [methotrexate], in experiment [1], the “ARID1A−/− selectivity” value is given as “neither taxol or methotrexate elicited ARID1A^−/− selectivity”.
